Results reported in ChEMBL document CHEMBL1201862, “PubChem BioAssay data set” (2004).
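How tested: cells in 96-well plates exposed to compound for 48 hours at five concentrations. GI50 = concentration required for 50% inhibition of growth.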 Calls of active or inactive are those of the source. Rule as the data show it: active = GI50 up to about 1.1 µM and inactive = higher.

Legend:
Assay in all cases: NCI-60 cell line screen, 48 h
786-0 = test system: 786-0
A498 = test system: A498
ACHN = test system: ACHN
CCRF-CEM = test system: CCRF-CEM
EKVX = test system: EKVX
HCC 2998 = test system: HCC 2998
HL-60 = test system: HL-60
HOP-62 = test system: HOP-62
LOX IMVI = test system: LOX IMVI
MDA-MB-231 = test system: MDA-MB-231
MDA-N = test system: MDA-N
NCI-H460 = test system: NCI-H460
NCI-H522 = test system: NCI-H522
PC-3 = test system: PC-3
RXF 393 = test system: RXF 393
SF-268 = test system: SF-268
SK-MEL-28 = test system: SK-MEL-28
SNB-19 = test system: SNB-19
SNB-75 = test system: SNB-75
SR = test system: SR

Measured: GI50

CCN(CC)CCn1c2ccccc2c(=O)c2c(O)ccc(O)c21
inactive: 786-0 34.1 µM | A498 74.3 µM | ACHN 33.7 µM | CCRF-CEM 11 µM | EKVX > 46.5 µM | HCC 2998 > 41.3 µM | HL-60 6.49 µM | HOP-62 50.5 µM | LOX IMVI 15.1 µM | MDA-MB-231 16.1 µM | MDA-N 18.7 µM | NCI-H460 > 57.9 µM | NCI-H522 15.4 µM | PC-3 24.5 µM | RXF 393 19 µM | SF-268 30.5 µM | SK-MEL-28 33.2 µM | SNB-19 58.9 µM | SNB-75 22.3 µM | SR 12.4 µM

CC(=O)OCCc1cc2ccccc2oc1=O
inactive: 786-0 > 100 µM | A498 > 100 µM | ACHN > 100 µM | CCRF-CEM > 100 µM | EKVX 86.7 µM | HCC 2998 > 100 µM | HL-60 > 100 µM | HOP-62 > 100 µM | LOX IMVI > 100 µM | MDA-MB-231 > 100 µM | MDA-N > 100 µM | NCI-H460 > 100 µM | NCI-H522 > 100 µM | PC-3 > 100 µM | RXF 393 > 100 µM | SF-268 > 100 µM | SK-MEL-28 > 100 µM | SNB-19 > 100 µM | SNB-75 > 100 µM | SR > 100 µM

O=C(Nc1cnc(O)nc1O)Oc1ccccc1
inactive: 786-0 > 100 µM | A498 > 100 µM | ACHN > 100 µM | CCRF-CEM > 100 µM | EKVX > 100 µM | HCC 2998 > 100 µM | HL-60 14.3 µM | HOP-62 > 100 µM | LOX IMVI > 100 µM | MDA-MB-231 > 100 µM | MDA-N > 100 µM | NCI-H460 > 100 µM | NCI-H522 > 100 µM | PC-3 > 100 µM | RXF 393 > 100 µM | SF-268 > 100 µM | SK-MEL-28 > 100 µM | SNB-19 > 100 µM | SNB-75 > 100 µM | SR > 100 µM

CCOC(=O)/C(C#N)=C/c1ccc2c(c1)CC1(C2)Cc2cc(CC)c(C(C)O)cc2C1 (stereo not given)
inactive: 786-0 17.3 µM | A498 25.8 µM | ACHN 30.3 µM | CCRF-CEM 4.61 µM | EKVX 57.5 µM | HCC 2998 16.3 µM | HL-60 3.03 µM | HOP-62 14.2 µM | LOX IMVI 6.95 µM | MDA-MB-231 10.5 µM | MDA-N 2.21 µM | NCI-H460 23.2 µM | NCI-H522 47 µM | PC-3 10.2 µM | RXF 393 6.79 µM | SF-268 13 µM | SK-MEL-28 12.8 µM | SNB-19 15.1 µM | SNB-75 8.38 µM | SR 5.05 µM
